Usually IC50 stands for the concentration at which inhibition is half-maximal. Read a high IC50 as lower potency.

The values that follow come from ChEMBL document CHEMBL3632573, “Triazine as a promising scaffold for its versatile biological behavior” (Eur J Med Chem, 2015).

This assay concerns the target Histone deacetylase. Kind of assay: Inhibition of HDAC (unknown origin). It counts as protein assay, Homo sapiens.

With `Nc1nc(NCc2ccc(C(=O)Nc3ccccc3N)cc2)nc(NC2CCCC2)n1`, the IC50 is less than 0.2 µM.
